The values that follow come from patent US20140263071A1, “METHOD FOR COLLECTING METALS” (CHEMEC OY AB, priority 2011, published 2014).

Series [1] can be described thus: Solubility of the compounds, molybdenum blue method, UV/Vis 880 nm (Example 6). Format: physicochemical. Particulars: saturated aqueous solution. The text has this:
The low solubility is achieved by using long carbon chain(s) or aromatic ring(s) in the bisphosphonate structure I. Advantageously, compound I contains 7-16 carbon atoms either in chain, branched chain or cyclic structure or in combination of these structural units between A and X, and preferably in the chain starting from the P-C-P bridging carbon and the number of heteroatomic functional groups excluding the phosphorous functionalities are limited to two or three groups. The solubility decreases even more if compound I contains functional groups which are capable to form twitter ions with each other. Typical examples of twitter ions are acids (e.g., —CO2H or —PO3H2) and bases (amines) in the same molecule. Solubilities of selected bisphosphonate compounds I were determined with UV/Vis spectrophotometer at 880 nm using molybdenum blue method (Finnish Standard Association SFS 3026: Determination of phosphate in water. Finnish Standard Association SFS, Helsinki Finland, 1986).
Solubilities of selected compounds were determined with UV/Vis Spectrophotometer at 880 nm using molybdenum blue method from saturated aqueous samples solutions (Finnish Standard Association SFS 3026: Determination of phosphate in water. Finnish Standard Association SFS, Helsinki Finland, 1986).

Series [2] in a line: Concentration of diluted samples, recovery after 1:10000 dilution (Example 24). Particulars: 1e 1 g in 10 liters. Here is the method: A water solution (100 ml) containing 100 ppb of desired metallic element prepared from Merch Titrisol® standard was diluted to 10 liters of water, pH was adjusted and the mixture was treated with 1e (1 g) for 24 h with stirring. After filtration trough sintered disc (porosity G-4), the solids were decomposed by using microware digestion, the residue was dilution to known volume of water (10 ml) and metal concentrations were determined by using AAS method.

Where two headings read alike, the source gives them in different places.

Consider `NCCCCCCCCCCCC(O)(P(=O)(O)O)P(=O)(O)O` [Compound 1e, 12-Amino-1-hydroxydodecane-1,1-diyldiphosphonic acid], for which the solubility in series [1] (read-out: mg/l (solubility calculated for whole molecule)) was 31 mg/L; in series [1] (read-out: mg/l P (solubility calculated as elemental phosphorus)) it was 5 mg/L. Besides, the “Yield [%] (recovery)” value in series [2] (Cd^2+, pH 3.6) is 98%; in series [2] (Cr^3+, pH 3.0), 98%; in series [2] (Cr^3+, pH 7.0), 97%; in series [2] (Hg^2+, pH 2.0) it was 93%; in series [2] (Hg^2+, pH 4.9) it was 94%; in series [2] (Hg^2+, pH 9.2), 94%. The “Yield [%] (recovery)” value was found to be 89% in series [2] (Hg^+, pH 2.0); 92% in series [2] (Hg^+, pH 5.0); 92% in series [2] (Hg^+, pH 9.2); 100% in series [2] (Pb^2+, pH 3.2); 85% in series [2] (Pb^2+, pH 5.0); 87% in series [2] (UO2^2+, pH 3.0).
